In patent US20020054880A1, “Anti-inflammatory, tolerogenic and immunoinhibiting properties of carbohydrate binding-peptides” (priority 1992, published 2002):
Like-named read-outs stand apart in the source and are kept apart here.

Key:
[1] = target: αNeuAc(2-3)βGal(1-3)βGlcNAc-BSA (1-4) αFuc (Bos taurus, UniProt P02769); conditions: SLe^a(C19.9), conjugate 50 μg/mL, 1 hour
Protocol: (§1) Binding assays were carried out essentially as described above using microtiter wells that were coated with 50 μl of BSA glycoconjugate (50 μg/ml) in 50 mM sodium phosphate buffer (pH 6.8) containing 5 mM MgCl2 nd 15 mM NaN3 for 16 hours at 4° C. The solution was removed by aspiration and replaced with 100 μl of 1% BSA in PBS containing 0.05% Tween 20 (PBST) and incubated at room temperature for an additional 2-3 hours. […] After incubating for 1 hour, the binding reaction was stopped by aspirating the solutions and the plate was washed with PBST (4×300 μl). Avidin-peroxidase (100 μl of a 1/3000 dilution of a 1 mg/ml solution in PBST) was added and incubated for an additional 1 hour. After washing the wells as described above, the substrate solution (1 mM ABTS in 5 mM citrate buffer, pH 4.2, containing 0.1% hydrogen peroxide, v/v) was added and the plates were incubated for 30 minutes. Binding assays for each BSA conjugate were done in triplicate and background binding was measured in wells coated with BSA only.

[2] = target: αNeuAc(2-3)βGal(1-3)βGlcNAc-BSA (Bos taurus, UniProt P02769); conditions: SLe^c, conjugate 50 μg/mL, 1 hour
Chain of αNeuAc(2-3)βGal(1-3)βGlcNAc-BSA (P02769 25-607): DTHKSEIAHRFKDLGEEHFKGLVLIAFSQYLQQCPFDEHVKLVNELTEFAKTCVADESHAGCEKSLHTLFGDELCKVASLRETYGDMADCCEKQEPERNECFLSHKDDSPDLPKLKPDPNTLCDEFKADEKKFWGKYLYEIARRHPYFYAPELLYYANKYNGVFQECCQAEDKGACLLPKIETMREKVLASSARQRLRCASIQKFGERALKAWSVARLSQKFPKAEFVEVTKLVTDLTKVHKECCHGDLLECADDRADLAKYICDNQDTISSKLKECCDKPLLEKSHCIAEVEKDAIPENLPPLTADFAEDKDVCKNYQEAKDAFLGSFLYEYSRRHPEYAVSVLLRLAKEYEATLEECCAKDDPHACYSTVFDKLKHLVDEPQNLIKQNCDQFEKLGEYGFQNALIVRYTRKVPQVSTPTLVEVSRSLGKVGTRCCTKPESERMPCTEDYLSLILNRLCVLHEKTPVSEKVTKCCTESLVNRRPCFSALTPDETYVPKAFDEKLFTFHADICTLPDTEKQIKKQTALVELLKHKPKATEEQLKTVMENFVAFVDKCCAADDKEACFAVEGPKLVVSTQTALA
Protocol: as §1

[3] = target: αNeuAc(2-3)βGal(1-4)βGlcNAc-BSA (1-3) αFuc (Bos taurus, UniProt P02769); conditions: SLe^x, conjugate 50 μg/mL, 1 hour
Chain of αNeuAc(2-3)βGal(1-4)βGlcNAc-BSA (1-3) αFuc (P02769 25-607): as above
Protocol: as §1

[4] = target: αNeuAc(2-3)βGal(1-4)βGlcNAc-BSA (Bos taurus, UniProt P02769); conditions: conjugate 50 μg/mL, 1 hour; for % Binding Relative to Fetuin of SPYGRC-b (n = 3): 0.5 μg SPYGRC-b; for % Binding Relative to Fetuin of ACS2P1-b (n = 3): 0.1 μg ACS2P1-biotin
Chain of αNeuAc(2-3)βGal(1-4)βGlcNAc-BSA (P02769 25-607): as above
Protocol: as §1

asialoagalactofetuin = target: T1, asialoagalactofetuin (Bos taurus, UniProt P12763); conditions: ACS2P1-biotin 10 μg/ml; glycoprotein 3 μg/ml; n=3
T1 sequence (P12763 19-359): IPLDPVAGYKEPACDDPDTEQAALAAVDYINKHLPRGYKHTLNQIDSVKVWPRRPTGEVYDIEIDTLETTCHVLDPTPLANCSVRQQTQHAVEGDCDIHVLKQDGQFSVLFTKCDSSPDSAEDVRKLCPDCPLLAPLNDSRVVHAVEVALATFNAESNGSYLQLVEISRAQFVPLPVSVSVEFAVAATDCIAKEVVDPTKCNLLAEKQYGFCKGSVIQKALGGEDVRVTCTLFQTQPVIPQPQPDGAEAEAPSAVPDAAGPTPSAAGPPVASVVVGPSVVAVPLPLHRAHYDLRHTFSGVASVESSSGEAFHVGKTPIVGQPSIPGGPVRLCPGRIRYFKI
Text: (§2) The reaction was terminated by removing the mixture from the IODO-GEN tube and the iodinated peptide was purified on a Sephadex G-25 column (1×15 cm equilibrated with PBS).

asialofetuin = target: T2, asialofetuin (Bos taurus, UniProt P12763); conditions: ACS2P1-biotin 10 μg/ml; glycoprotein 3 μg/ml; n=3
T2 sequence (P12763 19-359): T1 sequence (P12763 19-359)
Text: as §2

fetuin = fetuin (Bos taurus, UniProt P12763)
Text: as §2

[5] = target: PT immobilized in microtiter wells (Bordetella pertussis, UniProt P04978+P04979)
Chain of PT immobilized in microtiter wells (P04978 whole entry, looked up): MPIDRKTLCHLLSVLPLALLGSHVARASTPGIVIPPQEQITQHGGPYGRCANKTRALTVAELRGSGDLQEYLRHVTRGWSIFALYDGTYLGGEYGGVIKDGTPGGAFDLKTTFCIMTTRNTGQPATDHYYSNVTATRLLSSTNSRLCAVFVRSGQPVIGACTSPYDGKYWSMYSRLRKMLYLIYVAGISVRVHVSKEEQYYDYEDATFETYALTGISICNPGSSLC
Chain of PT immobilized in microtiter wells (P04979 whole entry, looked up): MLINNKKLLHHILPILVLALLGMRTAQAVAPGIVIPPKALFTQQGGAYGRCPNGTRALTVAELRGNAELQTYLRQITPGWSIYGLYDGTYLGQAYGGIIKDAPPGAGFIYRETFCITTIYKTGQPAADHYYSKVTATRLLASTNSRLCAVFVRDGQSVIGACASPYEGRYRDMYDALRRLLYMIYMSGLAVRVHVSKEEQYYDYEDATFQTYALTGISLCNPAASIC

Chain of αNeuAc(2-3)βGal(1-3)βGlcNAc-BSA (1-4) αFuc (P02769 25-607): as the sequence (P02769 25-607) above

| Substance | % Binding Relative to Fetuin of SPYGRC-b (n = 3) ([1]; 0.5 μg SPYGRC-b) [%] | % Binding Relative to Fetuin of SPYGRC-b (n = 3) ([2]; 0.5 μg SPYGRC-b) [%] | % Binding Relative to Fetuin of SPYGRC-b (n = 3) ([3]; 0.5 μg SPYGRC-b) [%] | % Binding Relative to Fetuin of SPYGRC-b (n = 3) ([4]; SLacNAc (table row r10)) [%] | % Binding Relative to Fetuin of SPYGRC-b (n = 3) ([4]; SLacNAc (table row r12)) [%] | binding to asialoagalactofetuin relative to fetuin (asialoagalactofetuin) [%] | binding to asialofetuin relative to fetuin (asialofetuin) [%] | direct binding of biotinylated peptide to fetuin, in words (fetuin) | reduction of binding of the peptide to fetuin by extensive iodination (IODO-GEN) (fetuin; iodinated vs underivatized peptide, 10 μg/ml, n=3) [%] | % Binding Relative to Fetuin of ACS2P1-b (n = 3) ([1]; 0.1 μg ACS2P1-biotin) [%] | % Binding Relative to Fetuin of ACS2P1-b (n = 3) ([2]; 0.1 μg ACS2P1-biotin) [%] | % Binding Relative to Fetuin of ACS2P1-b (n = 3) ([3]; 0.1 μg ACS2P1-biotin) [%] | % Binding Relative to Fetuin of ACS2P1-b (n = 3) ([4]; SLacNAc (table row r10)) [%] | % Binding Relative to Fetuin of ACS2P1-b (n = 3) ([4]; SLacNAc (table row r12)) [%] | direct binding of biotinylated peptide to PT immobilized in microtiter wells, in words [5] |
| --- | --- | --- | --- | --- | --- | --- | --- | --- | --- | --- | --- | --- | --- | --- | --- |
| BIOTIN-SPYGRC-CO—NH2 [SPYGRC-b] | 103 ± 8 | 97 ± 12 | 120 ± 4 | 120 ± 7 | 122 ± 5 |  |  |  |  |  |  |  |  |  |  |
| BIOTIN-PQEQITQHGSPYGRC-CO—NH2 [ACS2P1-b] |  |  |  |  |  | 93±18 | 45±9 | concentration-dependent binding | 58±3 | 84 ± 14 | 70 ± 4 | 84 ± 3 | 117 ± 12 | 94 ± 2 | concentration-dependent binding |
